# Assay results: a melting point compilation (Tetko et al.; mined from patent text by program, amines drawn as free bases though some values may be those of a salt)
row,SMILES,melting point [°C]
1,N#Cc1ccc(C=Cc2ccc(C#N)cc2)cc1,288
2,COc1ccc(CC(C)NCC(O)c2ccccc2OC)cc1OC (stereo unspecified),125 to 126
3,COC(=O)C1CCC2C3CCC4CC(O)CCC4(C)C3C(NC3CCCC3)CC12C (stereo unspecified),143 to 145
4,CC(=O)c1cc(C(C)=O)c(O)cc1N,227 to 230
5,Cn1c(C(F)(F)F)cc(=O)n(C)c1=O,85 to 87
6,CC(=O)NCc1ccc(CN2CCN(c3ncc([N+](=O)[O-])s3)CC2)cc1,151 to 152
7,CC(C)C(NC(=O)OCc1cccnc1)C(=O)NC(Cc1ccccc1)C(O)C(Cc1ccccc1)NC(=O)C(NC(=O)OCc1cccnc1)C(C)C (stereo unspecified),177 to 178
8,CC(=O)OC1CSC(Oc2ccc(-c3cccnc3C)nc2)C(OC(C)=O)C1OC(C)=O (stereo unspecified),198 to 200
9,O=c1[nH]c2cscc2c(=O)n1CCN1CCC(=C(c2ccc(F)cc2)c2ccc(F)cc2)CC1,204 to 206
10,CCOC(=O)C(=O)Nc1coc2cc(OC)ccc2c1=O,218 to 220
11,CC(=O)SCCNC(=O)[C@H](CSC(=O)C(C)(C)C)NC(=O)C(C)C,101 to 103
12,CC(C)c1cc2ncnn2nc1SCCCCl,82 to 83
13,COc1cc(N)c(Cl)cc1C(=O)N[C@H]1CCN(CCO)C[C@H]1OC (relative stereo),153
14,CC(C)(C)OC(=O)Nc1cccc(C(=O)OCOC(=O)C(C)(C)C)c1,88 to 89
15,CCN(CC)c1ccc(C2(c3ccc(N(C)C)cc3N(C)C)OC(=O)c3cc(N(C)C)ccc32)cc1 (stereo unspecified),123 to 125
16,Cc1[nH]c2ccccc2c1CN1CCC(c2c(Cl)cccc2Cl)CC1,168 to 170
17,CC(=O)N(C)c1ccc(N(CCCCN(c2ccc(N(C)C(C)=O)cc2)S(=O)(=O)c2ccccc2)S(=O)(=O)c2ccccc2)cc1,235
18,CNc1nc2c(s1)C(=O)CC(C)(C)C2,217 to 218
19,CC12CCC(=O)C(N=[N+]=[N-])=C1CCC1C2CCC2(C)C(OC3CC3)CCC12 (stereo unspecified),104 to 106
20,Cc1cc(C)n(-c2ccc(N(C)N)nn2)n1,93 to 94

row,SMILES,melting point [°C]
1,c1ccc(CN2CCC(Cc3nc4ccccc4[nH]3)CC2)cc1,222
2,CCCCC(Cc1ccc(OCCNC(=O)c2ccc(OC(C)C)nc2)cc1)C(=O)O (stereo unspecified),117 to 118
3,CCCNC(=O)n1nc(Oc2ccc(C(F)(F)F)cc2[N+](=O)[O-])cc1C,50 to 51
4,O=C(O)CCc1ccc(-c2nc3c(=O)n(CC4CCCCC4)c(=O)n(CC4CCCCC4)c3[nH]2)cc1,> 300
5,O=C1NC(N2CCN(c3ccncc3)CC2)c2ccccc21 (stereo unspecified),210 to 214
6,CC(=O)Nc1c(C#N)cnn1-c1ccc(Cl)c(Cl)c1Cl,222 to 224
7,Cc1c(-c2ccc(Cl)cc2Cl)nc(C#N)n1S(=O)(=O)N(C)C,92 to 95
8,O=S1(=O)CCN2C=CC=C(c3ccc(OC4CCCC4)cc3)C2=N1,254 to 256
9,Nc1ccc2[nH]c(=O)ccc2c1,116 to 118
10,CCc1[nH]n(C2CCCC2)c2nc(-c3ccccc3OCCCN3CCOCC3)nc(=O)c1-2,220 to 221
11,CCCc1c(OCC(=O)OCC)ccc(C(C)=O)c1O,61 to 64
12,N#CC(C#N)=NC1=C(N2CCOCC2)CCC1,157 to 158
13,OCc1cc(N(c2ccccc2)c2ccccc2)c(CO)cc1N(c1ccccc1)c1ccccc1,208 to 210
14,Brc1ccc2c(c1)CC(Cc1ccccc1)O2 (stereo unspecified),70 to 72
15,CC(=O)Nc1cscc1C(=O)O,206
16,C=CC(=O)Oc1c(Cc2cc(C)cc(C(C)(C)C)c2O)cc(C)cc1C(C)(C)C,132 to 134
17,O=C(O)c1c(-c2cnccn2)ssc1=S,225
18,O=C(C1CC1)N1CCC2(CC1)OCCO2,72 to 74
19,CCCCCCOCOc1c(C(C)(C)C)cc(-c2ccc(C#N)c(C#N)c2)cc1C(C)(C)C,106 to 107
20,CCOC(=O)C1=C(C)NC(N=CN(C)C)=C(C(=O)OCC)C1c1ccccc1[N+](=O)[O-] (stereo unspecified),126

row,SMILES,melting point [°C]
1,O=C(N[C@H]1CC[C@H](CCN2CCN(c3nccc4c3CCO4)CC2)CC1)c1cnc(N2CCOCC2)cn1,192
2,CN(C)C=C1CCN(Cc2ccc([N+](=O)[O-])cc2)c2ccsc2C1=O,214 to 216
3,c1cncc(-c2c[nH]cn2)c1,117 to 118
4,CCOc1cc2ncc(C#N)c(Nc3ccc4c(c3)NCC4)c2cc1OCC,121 to 124
5,Cn1ncc2c3[nH]ncc3ccc21,180 to 184
6,COc1cccc(N2CCN(CCC(=O)O)CC2)c1,180 to 183
7,COC(=O)c1cc(N)nn1C,114 to 118
8,COC(=O)CCCCCc1nn(-c2ccc(F)cc2)c2c1CCC2,39 to 40
9,CC(=O)OC(CF)c1ccccc1S(=O)(=O)NC(C)(C)C (stereo unspecified),118 to 119
10,CCOC(=O)C(=CN(C)C)C(=O)c1cc2cc(F)c(Cl)cc2nc1Cl,122
11,CCCCOc1ccc(-c2ccc(C)c(C#N)c2C#N)cc1,152
12,CN1CC=C(c2cn(C)c3ccc(NS(C)(=O)=O)cc23)CC1,198 to 202
13,CNC(=O)Nc1occ(C(C)(C)C)c1C#N,163
14,NS(=O)(=O)c1ccc(-c2cnn(C3=CC=CC(F)(F)C3F)c(=O)c2-c2ccc(F)cc2)cc1 (stereo unspecified),190 to 193
15,CC1(c2cccc(N)c2)OCCO1,75 to 77
16,c1ccc(C2=N[C@@H](c3ccccc3)[C@H](N3CCOCC3)S2)cc1 (relative stereo),92 to 94
17,CC1(C(=O)O)CCC2(C)CCC3(C)C(=CCC4C5(C)CCC(O)C(C)(C)C5CCC43C)C2C1 (stereo unspecified),329 to 331
18,COc1cc2c(c(OC)c1OC)CC(CCCCCCC1Cc3cc(OC)c(OC)c(OC)c3C1)C2 (stereo unspecified),69 to 70

# The remaining lines, values ahead:
row,melting point [°C],SMILES
1,149 to 151,COc1ccc(S(=O)(=O)N2Cc3cc(C)ccc3N(C(=O)c3ccccc3-n3cccn3)CC2C(=O)O)cc1 (stereo unspecified)
2,216,CC(C)(C)c1cccc(S(=O)(=O)n2c(Cc3ccc(C(=O)O)cc3)cc3c(Cl)c(Cl)ccc32)c1
3,94 to 95,COc1cc(C(=O)C=Cc2ccccn2)cc(OC)c1OC
4,96,c1ccc(COc2ccc(OCC3CC3)cc2)cc1
5,50 to 53,COC(=O)Cc1ccc(OCCNC(=O)C2Cc3ccccc3N2S(=O)(=O)c2ccc(-c3cc(C)ccc3Cl)cc2)cc1 (stereo unspecified)
6,301 to 302,CN(Cc1cc(C(F)(F)F)cc(C(F)(F)F)c1)C(=O)c1c(-c2ccc(C(=O)O)cc2)c2cccnc2c(=O)n1C
7,263 to 265,CCCCc1ccc(-c2csc(-c3ccc(C(=O)O)cc3)n2)cc1
8,230 to 231,COc1ccccc1-n1cnc2c(C(N)=O)nc(-c3cccc(O)c3)nc21
9,240,Cc1ccc(S(=O)(=O)NC(C)(C)CO)cc1NC(=O)c1cnn2c(C(F)(F)F)cc(-c3ccc(C(F)(F)F)cc3)nc12
10,157 to 160,O=C(Nc1ccccc1)C(=O)c1c2n(c3ccccc13)CCNCC2
11,74 to 75,Cc1cc([N+](=O)[O-])c(OCc2ccccc2)c(Cl)c1C
12,250 to 251,CCc1nc2c(N)nc3cc(-c4ccc(F)nc4)cnc3c2n1CC(C)(C)O
13,152 to 154,O=c1oc(-c2ccc(OCc3ccc4ccccc4c3)cc2)cc(O)c1SCCc1ccccc1
14,130 to 133,CCOCCOC(=O)C(=O)Nc1nc(-c2ccc(OC)cc2)cs1
15,107 to 109,CC(C)c1cccc(C(C)C)c1NC(=O)CN1CC2(CCCCC2)N(c2ccccc2)C1=O
16,179 to 184,Cc1cccc(-c2[nH]c(C(C)C)nc2-c2cccc(-c3ccc(NS(C)(=O)=O)cc3F)c2)n1
17,122 to 123,CCCCSc1cc(C(=O)OC)cc(S(N)(=O)=O)c1Oc1ccccc1
18,191 to 193,Cc1ccccc1OCC(O)CN1CCC2(CC1)CSC1=C(O2)c2ccccc2C(=O)C1=O (stereo unspecified)
19,229 to 231,FC(F)c1nc2ccccc2n1-c1nc(Oc2cccnc2)nc(N2CCOCC2)n1

row,melting point [°C],SMILES
1,166 to 167,Cc1ccc(Cn2cnc3c(-c4ccco4)ncnc32)cc1
2,107 to 109,Cc1ccc(S(=O)(=O)OCCc2ccc3cc(Br)ccc3n2)cc1
3,272,CS(=O)(=O)c1cnc(-c2nn(Cc3ccccc3F)c3ncccc23)nc1N
4,163 to 165,O=C(c1ccccc1)c1cccc2c1OCC2C(=O)O (stereo unspecified)
5,170 to 171,O=C(c1ccn2c1CSC2c1cccnc1)c1cn(CCO)c2cc(-c3ccc(F)cc3)ccc12 (stereo unspecified)
6,158 to 160,CO/C=C(/C(=O)OC)c1ccccc1Oc1cc(N)ncn1
7,> 300,O=C1CN2Cc3cc(C(=O)c4ccccc4)ccc3N=C2N1
8,70.2 to 73,O=[N+]([O-])c1cccc(Cn2c(-c3ccc4c(c3)OCO4)nc3ccccc32)c1
9,61.5 to 62.5,COC(=O)C(C)(SC)c1ccc(C(OC)(OC)c2ccccc2)s1 (stereo unspecified)
10,147 to 149,CCc1cn(S(=O)(=O)c2ccc(C)cc2)c2cc(C(=O)Nc3c(Cl)cncc3Cl)ccc12
11,283 to 285,COC(=O)[C@H]1Cc2c(sc3ccccc23)[C@@H](c2cccc(O)c2)N1
12,132 to 134,CCc1cc(OCc2ccc(-c3ccccc3C(=O)OC)cc2)c2ccccc2n1
13,202 to 203,CNC(=O)c1cc(CN2C(=O)C3(COc4cc5c(cc43)OCO5)c3ccccc32)oc1C(F)(F)F (stereo unspecified)
14,111 to 113,CCCCN(CC(=O)N1c2ccccc2N(C)C(=O)c2cnc(-c3ccccc3)nc21)C(C)(C)C
15,284 to 286,CN1c2ccccc2-c2nc3ccc(/C=C/C(N)=O)cc3c3cccc1c23
16,174 to 176,CCN1c2ncc(CC(O)c3ccncc3)cc2C(=O)N(C)c2ccc(F)nc21 (stereo unspecified)
17,169 to 171,O=C1Cc2cc(-c3cccc(Cl)c3)ccc2N1
18,229,Cc1cc(-c2ccc(C(F)(F)F)cc2)nc(-c2cccc(-c3cccc(S(N)(=O)=O)c3)n2)c1
19,114 to 115,CCc1cccc2c(C=O)cc(OC)c(O)c12
